Measurements taken from patent US20110003898A1, “MEDICAL GLUES FOR SURGERY COMPRISING BIOACTIVE COMPOUNDS” (Bayer MaterialScience AG, priority 2008, published 2011).

How the values were obtained:
Assay type in all cases: physicochemical
[1] = Film formation on the skin, cure time to disappearance of surface tackiness; details: adhesive with 2-5% active ingredient; ^2 = suspension
Description: (§1) 0.45 g of PEG 200 were mixed thoroughly with 0.55 g of aspartate B and 2-5% of the active ingredient. The solution was stirred with 4 g of prepolymer A and applied to the tissue. We tested for processing time and the effect of adhesion to meat as well as the formation of a film on the skin.

[2] = Active substance release from adhesive film into physiological saline (HPLC-UV/MS); details: 37° C., 2 h; for Release: 5x5 cm section (0.5 g) in 20 g physiological saline; for Amount of active substance released [%]: physiological saline
Procedure: For the quantitative determination of the active substance release, a transparent film with a thickness of 200 ? was produced by knife coating from 4 g of prepolymer A, 0.45 g of PEG 200, […] A section measuring 5×5 cm (weight: 0.5 g) was cut from this film, placed in a petri dish, covered with 20 g of physiological saline solution, and stored in an incubator at 37° C. for 2 h. The quantitative determination was carried out via HPLC-UV/MS (HPLC column: Inertsil ODS 3 5 □ 120 A 125 mm*2.1 mm 60° C.; eluent A: 25 mmol ammonium acetate in water, eluent B: 25 mmol ammonium acetate in methanol).

[3] = Pot life (processing time) of adhesive with active ingredient; details: 0.45 g PEG 200, 0.55 g aspartate B, 2-5% active ingredient, 4 g prepolymer A; ^2 = active substance in suspension
Description: as §1

[4] = 100 mg active substance in film
[5] = 250 mg active substance in film

Structure (SMILES) | Film formation cure time [min to disappearance of surface tackiness] [1] [min] | further results
C[C@]12CCC(=O)C=C1CC[C@@H]1[C@@H]2C(=O)C[C@@]2(C)[C@H]1CC[C@]2(O)C(=O)CO [cortisone] | 5 | Release [2, 4]: 230 mg/L; Amount of active substance released [%] [2, 4]: 46%
CC(C)Cc1ccc(C(C)C(=O)O)cc1 (stereo not shown) [ibuprofen] | 6 | 
CCN1CCN(c2cc3c(cc2F)c(=O)c(C(=O)O)cn3C2CC2)CC1 [enrofloxazine] | 4 | Pot life [3]: 1 min
CCn1cc(C(=O)O)c(=O)c2ccc(C)nc21 [nalidixic acid] | 5 | Release [2, 4]: 110 mg/L; Amount of active substance released [%] [2, 4]: 22%
Cc1ccc(C(C)C)c(O)c1 [thymol] | 5 | 
CC(=O)NS(=O)(=O)c1ccc(N)cc1 [sulfacetamide] | 5 | 
O=C1OC(CN2CCOCC2)CN1/N=C/c1ccc([N+](=O)[O-])o1 (stereo not shown) [furaldatone] | 4 | 
Cc1ncc([N+](=O)[O-])n1CCO [metronidazole] | 5 | Pot life [3]: 2 min
[H]/N=C(\N/C(=N/[H])NCCCCCCNC(=N)NC(=N)Nc1ccc(Cl)cc1)Nc1ccc(Cl)cc1 [chlorhexidine] | 3 | Pot life [3]: 0.5 min
COc1ccc2c(c1)c(CC(=O)OCC(=O)O)c(C)n2C(=O)c1ccc(Cl)cc1 [acemetacine] | 7 | 
CCOC(=O)c1ccc(N)cc1 [benzocaine] | 6 | 
CC(=O)Nc1ccc(O)cc1 [paracetamol] | 7 | Release [2, 4]: 136 mg/L; Amount of active substance released [%] [2, 4]: 27.2%
CCN(CC)CC(=O)Nc1c(C)cccc1C [lidocaine] | 4 | Release [2, 5]: 570 mg/L; Amount of active substance released [%] [2, 5]: 45.6%
COc1cccc(C2(O)CCCCC2CN(C)C)c1 (stereo not shown) [tramadol] | 4 | 
Oc1cc(Cl)ccc1Oc1ccc(Cl)cc1Cl [triclosan (Irgasan), 2,4,4′-trichloro-2′-hydroxydiphenyl ether] | 5 | 
CC(=O)Oc1ccccc1C(=O)O [acetylsalicylic acid] | 4 | Release [2, 5]: 320 mg/L; Amount of active substance released [%] [2, 5]: 25.6%
O=C(N[C@H](CO)[C@H](O)c1ccc([N+](=O)[O-])cc1)C(Cl)Cl [chloramphenicol] | 5 | Release [2, 5]: 646 mg/L; Amount of active substance released [%] [2, 5]: 51.7%
OC(Cn1cncn1)(Cn1cncn1)c1ccc(F)cc1F [fluconazole] | 15 | Pot life [3]: 3 min
CC[C@H]1OC(=O)[C@H](C)[C@@H](O[C@H]2C[C@@](C)(OC)[C@@H](O)[C@H](C)O2)[C@H](C)[C@@H](O[C@@H]2O[C@H](C)C[C@H](N(C)C)[C@H]2O)[C@](C)(O)C[C@@H](C)C(=O)[C@H](C)[C@@H](O)[C@]1(C)O [erythromycin] | 6 | 
CCCCN1CCCCC1C(=O)Nc1c(C)cccc1C (stereo not shown) [bupivacaine] | 6 | 
CCCCNc1ccc(C(=O)OCCN(C)C)cc1 [tetracaine] | 7 | 
